From ChEMBL document CHEMBL1201862, “PubChem BioAssay data set” (2004)
Activity calls are given as the source filed them.

Experiments:
[1] = P. falciparum Dd2 growth inhibitors, dose response, SYBR Green, cherry-picked samples (AID 1159567); assay type: functional, cell-based
[2] = growth suppression of PTEN-null colon cells, dose response, cell-based, HCT116 PTEN knockout (AID 1047); assay type: functional;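 note: HCT116 colon tumor cells with PTEN knocked out; cells exposed to compound for 60 hours before readout; potency for loss of cell viability measured by luminescence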
[3] = growth suppression of beta-catenin-knockout colon cells, dose response, cell-based, HCT116, human colon tumor (AID 1045); assay type: functional;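 note: HCT116 colon tumor cells with beta catenin knocked out; cells exposed to compound for 60 hours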
[4] = target: Heat shock protein HSP 90-alpha (Homo sapiens, UniProt P07900); assay type: functional, organism-based
[5] = target: T1, DNA repair protein RAD52 homolog (Homo sapiens, UniProt P43351); assay type: functional, biochemical
T1 sequence (P43351 whole entry): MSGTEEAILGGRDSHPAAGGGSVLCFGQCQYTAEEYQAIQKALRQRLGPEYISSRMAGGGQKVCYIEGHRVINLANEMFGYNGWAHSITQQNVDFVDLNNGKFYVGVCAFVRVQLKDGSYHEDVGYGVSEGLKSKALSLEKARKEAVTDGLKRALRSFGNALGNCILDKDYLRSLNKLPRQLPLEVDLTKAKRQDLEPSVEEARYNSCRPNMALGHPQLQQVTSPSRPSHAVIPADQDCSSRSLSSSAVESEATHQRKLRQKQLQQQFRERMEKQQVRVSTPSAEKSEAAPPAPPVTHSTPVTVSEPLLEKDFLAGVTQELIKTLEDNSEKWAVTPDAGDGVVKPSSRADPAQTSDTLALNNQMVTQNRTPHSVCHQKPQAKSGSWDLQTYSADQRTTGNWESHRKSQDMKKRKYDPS

Paired box protein Pax-8 = Paired box protein Pax-8 (Homo sapiens, UniProt Q06710); assay: inhibitors of PAX8-driven TPO luciferase reporter, dose response, RMG-I cells, cherry-pick (AID 687027); assay type: functional, cell-based;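 note: luciferase reporter driven by Pax8 target thyroperoxidase promoter measured by SteadyGlo luminescence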
Paired box protein Pax-8, sequence (Q06710 whole entry): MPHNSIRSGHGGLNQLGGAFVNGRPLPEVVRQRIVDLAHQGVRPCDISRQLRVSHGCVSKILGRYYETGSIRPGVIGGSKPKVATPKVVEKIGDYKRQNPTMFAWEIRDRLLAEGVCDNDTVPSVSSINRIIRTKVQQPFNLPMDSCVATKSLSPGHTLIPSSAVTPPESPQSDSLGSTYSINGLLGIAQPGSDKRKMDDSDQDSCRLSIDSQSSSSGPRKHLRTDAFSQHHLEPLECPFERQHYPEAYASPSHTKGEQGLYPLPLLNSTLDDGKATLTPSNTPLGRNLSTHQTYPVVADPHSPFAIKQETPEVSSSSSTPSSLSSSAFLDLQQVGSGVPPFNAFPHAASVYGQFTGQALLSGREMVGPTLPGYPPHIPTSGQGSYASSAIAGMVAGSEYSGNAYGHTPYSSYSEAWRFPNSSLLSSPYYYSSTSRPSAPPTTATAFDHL

[6] = cytotoxicity in OVCAR8 ovarian cancer cells, dose response, PAX8 project, cell-based, plate reader, dry powder samples (AID 743197); assay type: functional; details: OVCAR-8
[7] = THP-1 cell cytotoxicity, dose response, cytotoxicity control for non-replicating M. tuberculosis project (AID 489025); assay type: functional
cells = assay type: functional
[8] = target: T2, Calpain-2 catalytic subunit (Sus scrofa, UniProt P43367); assay: pig calpain II inhibitor potency, dose response, biochemical, fluorogenic peptide substrate (AID 1420); assay type: functional
T2 sequence (P43367 whole entry): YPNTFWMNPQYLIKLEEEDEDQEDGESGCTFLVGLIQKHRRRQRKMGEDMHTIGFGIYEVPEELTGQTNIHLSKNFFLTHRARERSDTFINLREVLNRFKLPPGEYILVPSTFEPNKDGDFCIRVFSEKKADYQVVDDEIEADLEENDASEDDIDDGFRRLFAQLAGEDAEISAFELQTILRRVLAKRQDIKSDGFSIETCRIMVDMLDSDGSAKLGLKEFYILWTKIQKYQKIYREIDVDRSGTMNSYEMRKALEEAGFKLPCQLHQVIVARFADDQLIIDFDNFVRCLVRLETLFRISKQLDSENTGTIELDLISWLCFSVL

Cytochrome P450 2C19 = Cytochrome P450 2C19 (Homo sapiens, UniProt P33261); assay: Cytochrome panel assay with activity outcomes. Panel member name: p450-cyp2c19 Compounds with AC50 equal or less than 10 uM are considered active; assay type: functional
Cytochrome P450 2C19, sequence (P33261 whole entry): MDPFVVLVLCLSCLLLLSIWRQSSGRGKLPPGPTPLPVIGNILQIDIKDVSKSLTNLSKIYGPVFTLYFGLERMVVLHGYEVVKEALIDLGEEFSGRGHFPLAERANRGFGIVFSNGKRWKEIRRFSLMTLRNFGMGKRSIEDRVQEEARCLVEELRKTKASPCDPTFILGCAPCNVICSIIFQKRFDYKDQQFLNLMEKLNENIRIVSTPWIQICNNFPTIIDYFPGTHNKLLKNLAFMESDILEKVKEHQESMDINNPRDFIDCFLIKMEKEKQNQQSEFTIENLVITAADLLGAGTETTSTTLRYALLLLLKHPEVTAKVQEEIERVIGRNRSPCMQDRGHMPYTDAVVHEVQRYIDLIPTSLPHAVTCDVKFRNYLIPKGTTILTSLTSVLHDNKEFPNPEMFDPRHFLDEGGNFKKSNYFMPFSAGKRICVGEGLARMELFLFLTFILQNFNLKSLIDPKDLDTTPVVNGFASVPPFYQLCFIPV

Cytochrome P450 3A4 = Cytochrome P450 3A4 (Homo sapiens, UniProt P08684);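 note: CYP3A4 tested as one member of a cytochrome P450 panel screen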
Cytochrome P450 3A4, sequence (P08684 whole entry): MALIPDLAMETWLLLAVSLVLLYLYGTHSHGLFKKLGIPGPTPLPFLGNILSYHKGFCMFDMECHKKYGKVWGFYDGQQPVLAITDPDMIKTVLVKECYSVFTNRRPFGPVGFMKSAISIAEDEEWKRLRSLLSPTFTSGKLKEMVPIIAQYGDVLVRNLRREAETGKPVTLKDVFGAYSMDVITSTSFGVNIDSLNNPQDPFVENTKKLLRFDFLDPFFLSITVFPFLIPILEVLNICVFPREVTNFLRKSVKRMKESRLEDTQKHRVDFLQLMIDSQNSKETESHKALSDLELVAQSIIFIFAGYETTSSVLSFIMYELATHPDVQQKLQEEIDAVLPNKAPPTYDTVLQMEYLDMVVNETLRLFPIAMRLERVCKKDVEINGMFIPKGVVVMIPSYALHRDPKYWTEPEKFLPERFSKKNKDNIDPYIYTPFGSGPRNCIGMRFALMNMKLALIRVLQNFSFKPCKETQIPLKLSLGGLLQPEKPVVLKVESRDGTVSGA

[9] = target: T3, High affinity choline transporter 1 (Homo sapiens, UniProt Q9GZV3); assay: CHT inhibitors, dose response, cell-based, 5-point CRC, membrane potential dye (AID 504840); assay type: functional
T3 sequence (Q9GZV3 whole entry): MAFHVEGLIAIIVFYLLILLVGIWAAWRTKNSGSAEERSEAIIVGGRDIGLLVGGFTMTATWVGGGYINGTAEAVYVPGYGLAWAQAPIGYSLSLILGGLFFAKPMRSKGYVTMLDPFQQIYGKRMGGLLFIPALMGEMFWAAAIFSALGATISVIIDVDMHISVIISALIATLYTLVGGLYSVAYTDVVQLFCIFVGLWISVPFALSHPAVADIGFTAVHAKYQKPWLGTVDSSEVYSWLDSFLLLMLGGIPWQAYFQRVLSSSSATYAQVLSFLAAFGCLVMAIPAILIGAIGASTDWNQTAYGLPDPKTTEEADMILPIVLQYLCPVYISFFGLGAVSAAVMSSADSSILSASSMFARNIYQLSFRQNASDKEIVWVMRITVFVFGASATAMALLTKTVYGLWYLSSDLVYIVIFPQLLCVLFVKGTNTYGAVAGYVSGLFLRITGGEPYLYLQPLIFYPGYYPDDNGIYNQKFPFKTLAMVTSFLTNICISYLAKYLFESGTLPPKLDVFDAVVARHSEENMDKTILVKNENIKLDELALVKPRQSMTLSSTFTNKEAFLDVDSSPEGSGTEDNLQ

[10] = target: Glyceraldehyde-3-phosphate dehydrogenase (Homo sapiens, UniProt P04406)
Glyceraldehyde-3-phosphate dehydrogenase, sequence (P04406 whole entry): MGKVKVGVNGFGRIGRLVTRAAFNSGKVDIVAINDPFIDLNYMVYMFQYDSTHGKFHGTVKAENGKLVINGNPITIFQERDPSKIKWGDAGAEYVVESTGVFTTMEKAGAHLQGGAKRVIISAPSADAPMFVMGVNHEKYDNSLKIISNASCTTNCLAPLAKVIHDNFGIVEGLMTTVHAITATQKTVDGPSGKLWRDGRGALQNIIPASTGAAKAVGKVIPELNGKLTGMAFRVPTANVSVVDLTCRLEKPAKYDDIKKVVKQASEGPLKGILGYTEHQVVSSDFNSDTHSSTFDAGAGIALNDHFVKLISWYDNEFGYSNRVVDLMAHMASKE

[11] = Luminescence Cell-Based Dose Confirmation HTS to Identify Inhibitors of Platelet Dense Granule Release. [Related pubchem assays: 1663 (Primary HTS), 1678 (Summary of Project)]; assay type: functional
[12] = target: Luciferin 4-monooxygenase (Photinus pyralis, UniProt P08659); assay: firefly luciferase enzyme inhibitors, dose response, biochemical, luminescence (AID 1891)
Luciferin 4-monooxygenase, sequence (P08659 whole entry): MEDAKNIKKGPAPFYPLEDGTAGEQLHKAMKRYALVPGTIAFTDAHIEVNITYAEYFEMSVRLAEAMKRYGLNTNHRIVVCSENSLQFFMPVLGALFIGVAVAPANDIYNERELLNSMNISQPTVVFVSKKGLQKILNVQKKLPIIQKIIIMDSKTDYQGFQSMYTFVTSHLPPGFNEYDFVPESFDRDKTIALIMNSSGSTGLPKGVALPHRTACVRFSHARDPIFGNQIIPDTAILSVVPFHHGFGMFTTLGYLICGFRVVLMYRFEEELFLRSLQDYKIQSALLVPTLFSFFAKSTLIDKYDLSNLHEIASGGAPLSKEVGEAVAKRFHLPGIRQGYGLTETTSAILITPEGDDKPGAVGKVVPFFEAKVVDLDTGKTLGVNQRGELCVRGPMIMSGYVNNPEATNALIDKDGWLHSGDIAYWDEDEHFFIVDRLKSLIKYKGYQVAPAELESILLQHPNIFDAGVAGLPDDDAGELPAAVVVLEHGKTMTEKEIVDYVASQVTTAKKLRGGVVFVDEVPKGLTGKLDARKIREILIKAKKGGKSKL

Protein skinhead-1 = target: T4, Protein skinhead-1 (Caenorhabditis elegans, UniProt P34707); assay type: functional
T4 sequence (P34707 whole entry): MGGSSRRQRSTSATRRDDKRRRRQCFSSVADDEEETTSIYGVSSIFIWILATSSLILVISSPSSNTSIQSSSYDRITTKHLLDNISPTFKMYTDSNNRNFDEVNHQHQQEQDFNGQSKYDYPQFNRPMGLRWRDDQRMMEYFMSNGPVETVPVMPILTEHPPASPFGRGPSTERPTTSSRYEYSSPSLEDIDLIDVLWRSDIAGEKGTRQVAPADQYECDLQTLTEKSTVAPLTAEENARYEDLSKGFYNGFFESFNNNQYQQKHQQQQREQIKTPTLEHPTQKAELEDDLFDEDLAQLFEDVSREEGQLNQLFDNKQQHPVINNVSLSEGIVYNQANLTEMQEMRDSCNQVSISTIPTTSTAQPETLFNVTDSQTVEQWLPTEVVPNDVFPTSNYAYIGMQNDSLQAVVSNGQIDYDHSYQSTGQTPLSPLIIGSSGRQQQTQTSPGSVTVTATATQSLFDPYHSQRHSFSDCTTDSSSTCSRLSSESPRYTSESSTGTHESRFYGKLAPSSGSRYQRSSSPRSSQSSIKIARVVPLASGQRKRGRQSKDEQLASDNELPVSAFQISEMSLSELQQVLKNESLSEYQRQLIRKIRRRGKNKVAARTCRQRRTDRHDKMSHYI

COc1ccccc1CNC(=O)C[C@H]1C[C@H]2c3cc(NC(=O)Cc4ccncc4)ccc3O[C@H]2[C@@H](CO)O1
AC50 [1]: 4.52 µM (active)

O=C(CN1CCCCC1)N1CCCc2c1c(=O)oc1ccc(OCc3ccccc3)cc21
EC50 [2]: 39.9 µM (active) | EC50 [3]: 48.4 µM (active)

O=C(c1ccc(-c2ccccc2)cc1)C1CCCN(C(=O)c2cncs2)C1 (stereo unspecified)
AC50 [4]: 4.29 µM (active)

COc1ccc2nc(NCCN=C(S)NCCCN3CCOCC3)c(C#N)cc2c1
AC50 [5]: 9.87 µM (active)

CCN(CC)CCN1CCn2c3c(c4cc(C)ccc42)CCCC31 (stereo unspecified)
AC50 [5]: 17.6 µM (active)

COc1cccc(S(=O)(=O)N(C)C[C@H]2OCc3ccccc3-c3c(n(C)c4ccccc34)C(=O)N([C@H](C)CO)C[C@H]2C)c1
AC50 (Paired box protein Pax-8): 9.53 µM (active) | AC50 [6]: > 70 µM (inactive)

CN(C)CC/C=C1/c2ccc(F)cc2Sc2ccc(Cl)cc21
CC50 [7]: 18.9 µM (active) | IC50 (cells): 18.6 µM (active) | AC50 [5]: 12.8 µM (active)

CC(C)C[C@H](NC(=O)[C@@H]1O[C@H]1C(=O)O)C(=O)NCCCCN=C(N)N
IC50 [8]: > 50 µM (not active) | AC50 (Cytochrome P450 2C19): inconclusive | AC50 (Cytochrome P450 3A4): 0.158 µM (inconclusive)

CC(=O)Nc1cccc(-c2cc(N3CCN(CCO)CC3)n3nccc3n2)c1
AC50 [5]: 27.6 µM (active)

COc1ccc(-n2c(C)cc(C(=O)CSc3nnc(-c4ccoc4C)n3C)c2C)cc1
IC50 [9]: 13.8 µM (active)

Cc1ccc2c(c1)c1c3n2CCN(CC(O)CNC(C)C)C3CCC1 (stereo unspecified)
AC50 [5]: 15.8 µM (active)

O=C(O)C1Nc2ccccc2S(=O)(=O)N1 (stereo unspecified)
IC50 [10]: > 100 µM (not active)

C[C@@H]1CN([C@H](C)CO)C(=O)c2c(c3ccccc3n2C)-c2ccccc2CO[C@@H]1CN(C)Cc1cccc(F)c1
AC50 [1]: 3.45 µM (active)

CCn1ccc(C(=O)Nc2c(C)nn(Cc3c(F)c(F)c(F)c(F)c3F)c2C)n1
EC50 [11]: > 112 µM (not active) | EC50 [12]: > 112 µM (not active)

Cc1noc(C)c1CSc1nnc2scc(-c3ccc(Cl)cc3)n12
EC50 [11]: > 112 µM (not active) | EC50 [12]: > 112 µM (not active)

Fc1ccccc1Nc1nc2ccccc2o1
EC50 [11]: 4.57 µM (active) | EC50 [12]: 0.83 µM (active)

CN(C)CCCNc1nc2cc(-c3cnn(C)c3)sc2c(=O)n1C
AC50 [5]: 10.2 µM (active)

CCOc1cc2c(cc1C(C)(C)C)NC(=O)CS2
EC50 [11]: > 112 µM (not active) | EC50 [12]: > 112 µM (not active)

COc1ccc(-n2cc(-c3ccccc3)c3c(N4CCN(CCO)CC4)ncnc32)cc1
EC50 [2]: 32.8 µM (active) | EC50 [3]: 30.3 µM (active)

COc1ccc2nc(Nc3nc4ccc(NC(C)=O)cc4s3)sc2c1
EC50 [2]: 16.9 µM (active) | EC50 [3]: 14 µM (active)

CCC(=O)N1CCc2cc(S(=O)(=O)N3CCc4ccccc4C3)ccc21
IC50 [8]: < 0.4 µM (not active)

CCOC(=O)C1CCN(Cc2c(O)oc3ccccc3c2=O)CC1
IC50 [9]: 6.91 µM (active)

COc1cccc(CNC(=O)c2cc3c(c(-c4cccc(-c5ccncc5)c4)n2)[C@@H](CCO)N([S@+]([O-])C(C)(C)C)C3)c1
AC50 [1]: 4.32 µM (active)

Cc1ccc(S(=O)(=O)N(C)C[C@@H]2OCCCC[C@H](C)Oc3ccc(NS(=O)(=O)c4cccs4)cc3C(=O)N([C@H](C)CO)C[C@H]2C)cc1
AC50 (Paired box protein Pax-8): 6.6 µM (active) | AC50 [6]: > 70 µM (inactive)

CCCCn1c(SCn2nnc3ccccc3c2=O)nc2cc(S(N)(=O)=O)ccc21
IC50 [9]: 15.8 µM (active)

COc1cccc(/C=N/Nc2ccc(S(=O)(=O)O)cc2)c1O
EC50 [11]: 3.13 µM (active) | EC50 [12]: 3.91 µM (active)

O=C(Nc1cccc(-c2nnc(-c3ccco3)o2)c1)c1ccccc1
IC50 [8]: 2.37 µM (not active)

CC(C)(C)[S@+]([O-])N1Cc2cc(C(=O)NCCN3CCCCC3)nc(-c3cccc(-c4ccc(C#N)cc4)c3)c2[C@@H]1CCO
AC50 [1]: 9.22 µM (active)

COc1ccc(N(C(=O)Cn2nnc(-c3ccccc3F)n2)C(C(=O)NCC2CCCO2)c2ccc(Cl)cc2)cc1 (stereo unspecified)
IC50 [8]: > 50 µM (not active)

Cc1ccc(SCCN=C(S)Nc2cc(C)cc(C)c2)cc1
IC50 [8]: 6.82 µM (not active)

Cc1ccccc1S(=O)(=O)N1[C@H](CO)[C@@H](c2ccc(C#CC3CC3)cc2)[C@@H]1C#N
AC50 [1]: 4.33 µM (active)

C[C@H](CO)N1C[C@H](C)[C@H](CN(C)Cc2ccc(C(F)(F)F)cc2)OCCCC[C@H](C)Oc2ccc(NC(=O)c3ccccc3)cc2C1=O
AC50 (Paired box protein Pax-8): 9.33 µM (active) | AC50 [6]: 43.7 µM (active)

COc1ccc2oc(/C=C/N(C)C)c(C(=O)c3ccc(Cl)cc3)c2c1
AC50 [4]: 3.8 µM (active)

COc1ccc(S(=O)(=O)N(C)C[C@H]2OCCCC[C@@H](C)Oc3ccc(NS(=O)(=O)c4c(C)noc4C)cc3C(=O)N([C@H](C)CO)C[C@H]2C)cc1
AC50 (Paired box protein Pax-8): 7.76 µM (active) | AC50 [6]: 66 µM (active)

COc1ccc(CO/N=C/c2c(C)nc(O)nc2O)cc1
EC50 [11]: 13.8 µM (active) | EC50 [12]: > 112 µM (not active)

Cc1cc(C(=O)N/N=C/c2ccc(OCc3ccccc3)cc2)c(C)o1
IC50 [8]: < 0.4 µM (not active)

O=C(/C=C/Nc1ccc(Oc2ccccc2)cc1)c1ccco1
IC50 (Protein skinhead-1): > 100 µM (inactive) | EC50 [11]: 1.64 µM (active) | EC50 [12]: 0.617 µM (active)
